pKi: −log10 of the molar value.

Results on 47 molecules are retold here after patent EP2892896B1 (Bristol-Myers Squibb Company, priority 2012, dated 2014).

The target in this test is T1, human melanin concentrating hormone receptor (MCHR1) (Homo sapiens, UniProt Q99705, A5T/E4Q).
T1 construct: expressed in transfected cells; host or cells: HEK-293 (stably transfected), membranes
Put plainly: Radioligand binding assay for assessment of MCHR1 activity. To be noted: membranes from HEK-293 cells expressing a mutated (E4Q, A5T) hMCHR1 receptor; competition with 0.06 - 0.1 nM [Phe13, [125I]Tyr19]-MCH; 90 min. On the procedure: Radioligand Binding Assay for Assessment of MCHR1 Activity
An in vitro binding assay was used to determine the compound Ki value or ability to antagonize binding of a peptide agonist to the human melanin concentrating hormone receptor (MCHR1). […] Binding experiments were carried out with 0.5-1.0 µg of membrane protein incubated in a total of 0.2 mL in 25 mM HEPES (pH 7.4) with 10 mM MgCl2, 2 mM EGTA, and 0.1% BSA (Binding Buffer) for 90 min. For competition binding assays, reactions were carried out in the presence of with 0.06 - 0.1 nM [Phe^13, [^125I]Tyr^19]-MCH and increasing concentrations of unlabeled test molecules. […] Filters were dried, 0.05 mL MicroScint 20 was added to each well and radioactivity was subsequently quantified by scintillation counting on a TOPCOUNT® microplate scintillation counter (Packard). Inhibitory constants were determined by nonlinear least squares analysis using a four parameter logistic equation.

T1 sequence (Q99705 whole entry E4Q/A5T): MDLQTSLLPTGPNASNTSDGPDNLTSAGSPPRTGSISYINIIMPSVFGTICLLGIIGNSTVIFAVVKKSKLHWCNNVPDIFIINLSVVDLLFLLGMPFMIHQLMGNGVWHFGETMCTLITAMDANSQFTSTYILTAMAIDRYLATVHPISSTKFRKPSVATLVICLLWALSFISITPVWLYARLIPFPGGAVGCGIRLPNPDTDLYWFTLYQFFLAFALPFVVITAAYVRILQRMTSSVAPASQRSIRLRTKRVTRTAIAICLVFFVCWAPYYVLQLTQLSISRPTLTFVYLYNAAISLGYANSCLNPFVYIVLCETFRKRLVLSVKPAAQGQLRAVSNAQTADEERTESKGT

In general, pKi refers to the Ki on a negative log10 scale, so that one unit is a factor of ten. Read a high pKi as a low Ki. Molecule `COc1cc(N2CC[C@@H](Oc3ccc(C(F)(F)F)cc3)C2=O)ccc1OCC(C)(C)O` (single isomer, unassigned) [Example 9] gave a pKi of 7.64.

`COc1cc(N2CC[C@H](Oc3ccc(C(F)(F)F)cc3)C2=O)ccc1OCC(C)(C)O` (single isomer, unassigned) [Example 10] showed a pKi of 5.22.

Molecule `Cc1cc(N2CC[C@@H](Oc3ccc(-c4ccccc4)cc3)C2=O)ccc1OCCS(C)(=O)=O` (single isomer, unassigned) [Example 106] gave a pKi of 6.20.

For `COc1cc(N2CCC(Oc3ccccc3Cl)C2=O)ccc1OCC(C)(C)O` (centres unmarked) [Example 1, 3-(2-Chlorophenoxy)-1-(4-(2-hydroxy-2-methylpropoxy)-3-methoxyphenyl)pyrrolidin-2-one], the pKi was 5.30.

`COc1cc(N2CCC(Oc3cccc(Cl)c3)C2=O)ccc1OCC(C)(C)O` (centres unmarked) [Example 2] showed a pKi of 5.00.

For the molecule `COc1cc(N2CCC(Oc3ccc(Cl)cc3)C2=O)ccc1OCC(C)(C)O` (centres unmarked) [Example 3], the negative logarithm of the Ki (pKi) is 5.69.

Regarding `COc1cccc(OC2CCN(c3ccc(OCC(C)(C)O)c(OC)c3)C2=O)c1` (centres unmarked) [Example 4], the pKi was 6.66.

As to `COc1ccc(OC2CCN(c3ccc(OCC(C)(C)O)c(OC)c3)C2=O)cc1` (centres unmarked) [Example 5], the pKi is 6.18.

Molecule `COc1cc(N2CCC(Oc3ccccc3C(F)(F)F)C2=O)ccc1OCC(C)(C)O` (centres unmarked) [Example 6] gave a pKi of 5.15.

`COc1cc(N2CCC(Oc3cccc(C(F)(F)F)c3)C2=O)ccc1OCC(C)(C)O` (centres unmarked) [Example 7] showed a pKi of 5.22.

`COc1cc(N2CCC(Oc3ccc(C(F)(F)F)cc3)C2=O)ccc1OCC(C)(C)O` (centres unmarked) [Example 8] showed a pKi of 7.47.

On to `COc1cc(N2CCC(Oc3cccc(OC(F)(F)F)c3)C2=O)ccc1OCC(C)(C)O` (centres unmarked) [Example 11], for which the pKi was 5.30.

Consider `COc1cc(N2CCC(C)(Oc3ccc(OC(F)(F)F)cc3)C2=O)ccc1OCC(C)(C)O` (centres unmarked) [Example 13, 1-(4-(2-Hydroxy-2-methylpropoxy)-3-methoxyphenyl)-3-methyl-3-(4-(trifluoromethoxy)phenoxy)pyrrolidin-2-one], for which the pKi is 6.33.

The molecule `COc1cc(N2CCC(Oc3ccc(OC(F)(F)F)cc3)C2=O)ccc1OCC(C)(C)O` (centres unmarked) [Example 14] gave a pKi of 6.87.

In the case of `COc1cc(N2CC[C@@H](Oc3ccc(OC(F)(F)F)cc3)C2=O)ccc1OCC(C)(C)O` [Example 15], the pKi was 7.96.

Turning to `COc1cc(N2CC[C@H](Oc3ccc(OC(F)(F)F)cc3)C2=O)ccc1OCC(C)(C)O` [Example 16], the pKi was 5.63.

`COc1cc(N2CCC(Oc3ccc(OC(F)(F)F)cc3Cl)C2=O)ccc1OCC(C)(C)O` (centres unmarked) [Example 17]: the pKi is 6.40.

In the case of `COc1cc(N2CCC(Oc3ccc(OC(F)(F)F)c(F)c3)C2=O)ccc1OCC(C)(C)O` (centres unmarked) [Example 18], the pKi is 6.02.

The molecule `COc1cc(N2CCC(Oc3ccc(-c4ccccc4)cc3)C2=O)ccc1OCC(C)(C)O` (centres unmarked) [Example 19] gave a pKi of 8.40.

The molecule `COc1cc(N2CC[C@H](Oc3ccc(-c4ccccc4)cc3)C2=O)ccc1OCC(C)(C)O` [Example 20] had a negative logarithm of the Ki (pKi) of 6.31.

`COc1cc(N2CC[C@@H](Oc3ccc(-c4ccccc4)cc3)C2=O)ccc1OCC(C)(C)O` [Example 21] gave a pKi of 8.70.

Molecule `COc1cc(N2CCC(Oc3ccc(C4CC4)cc3)C2=O)ccc1OCC(C)(C)O` (centres unmarked) [Example 22, 3-(4-Cyclopropylphenoxy)-1-(4-(2-hydroxy-2-methylpropoxy)-3-methoxyphenyl)pyrrolidin-2-one] had a negative-log Ki (pKi) of 7.64.

`COc1cc(N2CCC(Oc3ccc(OC4CC4)cc3)C2=O)ccc1OCC(C)(C)O` (centres unmarked) [Example 23] gave a pKi of 7.36.

The molecule `COc1cc(N2CCC(Oc3ccc(-c4ccccc4F)cc3)C2=O)ccc1OCC(C)(C)O` (centres unmarked) [Example 24, 3-(2'-Fluorobiphenyl-4-yloxy)-1-(4-(2-hydroxy-2-methylpropoxy)-3-methoxyphenyl)pyrrolidin-2-one] gave a pKi of 8.05.

`COc1cc(N2CCC(Oc3ccc(-c4ccccc4Cl)cc3)C2=O)ccc1OCC(C)(C)O` (centres unmarked) [Example 25] had a pKi of 7.17.

In turn, `COc1cc(N2CCC(Oc3ccc(-c4ccccc4C)cc3)C2=O)ccc1OCC(C)(C)O` (centres unmarked) [Example 26] gave a pKi of 7.09.

Regarding `COc1cc(N2CCC(Oc3ccc(-c4ccccc4OC)cc3)C2=O)ccc1OCC(C)(C)O` (centres unmarked) [Example 27], the pKi is 6.62.

Regarding `COc1cc(N2CCC(Oc3ccc(-c4ccccc4C(F)(F)F)cc3)C2=O)ccc1OCC(C)(C)O` (centres unmarked) [Example 28], the pKi was 6.02.

In the case of `COc1cc(N2CCC(Oc3ccc(-c4ccccc4)c(Cl)c3)C2=O)ccc1OCC(C)(C)O` (centres unmarked) [Example 29], the pKi is 7.06.

On to `COc1cc(N2CCC(Oc3ccc(-c4ccccc4)c(F)c3)C2=O)ccc1OCC(C)(C)O` (centres unmarked) [Example 30], for which the pKi was 7.92.

In the case of `COc1cc(N2CCC(Oc3ccc(-c4ccccc4F)c(F)c3)C2=O)ccc1OCC(C)(C)O` (centres unmarked) [Example 31], the pKi is 7.47.

As for `COc1cc(N2CCC(Oc3ccc(-c4ccncc4Cl)cc3)C2=O)ccc1OCC(C)(C)O` (centres unmarked) [Example 32], the pKi was 6.20.

Molecule `Cc1cc(N2CCC(Oc3ccc(N4CCOCC4)cc3)C2=O)ccc1OCC(C)(C)O` (centres unmarked) [Example 33] showed a pKi of 6.04.

With `COc1cc(N2CCC(Oc3ccc(-c4ccccc4)cn3)C2=O)ccc1OCC(C)(C)O` (centres unmarked) [Example 34, 1-(4-(2-Hydroxy-2-methylpropoxy)-3-methoxyphenyl)-3-(5-phenylpyridin-2-yloxy)pyrrolidin-2-one], the pKi was 7.89.

The molecule `COc1cc(N2CCC(Oc3ccc(-c4ccccc4)nc3)C2=O)ccc1OCC(C)(C)O` (centres unmarked) [Example 35] showed a pKi of 7.09.

`COc1cc(N2CCC(Oc3ccc(-c4cccnc4)cc3)C2=O)ccc1OCC(C)(C)O` (centres unmarked) [Example 36]: the negative-log Ki (pKi) was 7.17.

`COc1cc(N2CCC(Oc3ccc(-c4ccncc4)cc3)C2=O)ccc1OCC(C)(C)O` (centres unmarked) [Example 37]: the pKi is 7.14.

On to `COc1cc(N2CCC(Oc3ccc(-n4cccc4)cc3)C2=O)ccc1OCC(C)(C)O` (centres unmarked) [Example 38], for which the pKi is 8.30.

In turn, `COc1cc(N2CCC(Oc3ccc(-n4ccnc4)cc3)C2=O)ccc1OCC(C)(C)O` (centres unmarked) [Example 39] showed a pKi of 6.32.

With `COc1cc(N2CCC(Oc3ccc(Br)c(Cl)c3)C2=O)ccc1OCC(C)(C)O` (centres unmarked) [Example 41], the pKi was 6.28.

On to `COc1cc(N2CCC(Oc3ccc(Br)c(F)c3)C2=O)ccc1OCC(C)(C)O` (centres unmarked) [Example 42], for which the negative-log Ki (pKi) is 6.09.

`COc1ccc(N2CCC(Oc3ccc(-c4ccccc4)cc3)C2=O)cc1OC` (centres unmarked) [Example 43] showed a pKi of 7.72.

`COc1cc(N2CC[C@@H](Oc3ccc(-c4ccccc4)cc3)C2=O)ccc1OC[C@H](O)C1CC1` [Example 44] had a negative logarithm of the Ki (pKi) of 8.40.

Molecule `COc1cc(N2CC[C@H](Oc3ccc(-c4ccccc4)cc3)C2=O)ccc1OC[C@H](O)C1CC1` [Example 45] gave a negative logarithm of the Ki (pKi) of 5.98.

Regarding `COc1cc(N2CCC(Oc3ccc(C4CC4)cc3)C2=O)ccc1OC[C@H](O)C1CC1` (some centres unmarked) [Example 46], the negative-log Ki (pKi) is 7.92.

`COc1cc(N2CCC(Oc3ccc(-c4ccccc4)cc3)C2=O)ccc1OCC1(O)CC(F)(F)C1` (centres unmarked) [Example 47] showed a negative logarithm of the Ki (pKi) of 8.15.

For `CCS(=O)(=O)C[C@H](O)COc1ccc(N2CCC(Oc3ccc(OC(F)(F)F)cc3)C2=O)cc1OC` (some centres unmarked) [Example 50], the negative logarithm of the Ki (pKi) was 6.71.
